The values that follow come from patent publication US9415032B2, “Membrane activated chelators and use in the prevention and treatment of parasitic infection” (THE JOHNS HOPKINS UNIVERSITY, priority 2011, dated 2016).

Holding throughout (assay type): cell-based
One test concerns P. falciparum. The test is described as follows: antimalarial cytotoxicity assay ([3H]hypoxanthine), malaria-infected RBC. The conditions noted are these: Plasmodium falciparum. The procedure:
FIG. 2 is set of graphs showing the percentage of P. falciparum killed by MACs of the present invention as a function of drug concentration. Malaria-infected RBC were incubated with DP-b99 (A and B).
FIG. 3 is a graph showing the percentage of P. falciparum killed by MACs of the present invention as a function of drug concentration.
Malaria. Because of the importance of calcium signaling in mammalian cells and recent findings that interference with host cell signaling pathways to subvert the host intracellular milieu may be an important mechanism for the malaria parasite's survival, it was thought that MACs might be toxic to malarial parasite within host cells (i.e. RBCs, hepatocytes). It was investigated whether MAC compounds of the present invention would be able to kill intracellular malaria parasites. An established antimalarial cytotoxicity assay developed in Dr. Theresa Shapiro's laboratory (JHU) (Tetrahedron, 1997; 53(1):37-50) was used with the following modifications: (1) Parasitemia was maintained at 0.1% to 5% by thrice weekly change of medium and replenishment of human erythrocytes; (2) [^3H]hypoxanthine (10-30 Ci/mmol, 1.0 mCi/mL was used in aqueous solution, (Perkin-Elmer NET177001MC), diluted to 25 μCi/mL with medium; and as for the trypanosome experiments (3) the cytotoxicity assays for two MAC compounds of the present invention, DP-b99 and DP-460 (DPharm, Ltd., Rehovot Ill.), included 10 concentrations based on stock solutions (50.0 mg/mL) of each compound that were prepared in sterile HPLC-grade water.

The test system of test [1] is T. b. brucei 427 or T. b. rhodesiense IL1852. The test is described as follows: trypanosome cytotoxicity assay in vitro. The following applies: Trypanosoma brucei, by 24 hours, BSF trypanosomes, read-out: effective concentration of drug to kill 50% (EC50) of the parasites. The procedure:
(§1) FIG. 1 illustrates the effect of MACs of the present invention on human brain microvascular endothelial cell (BMEC) monolayers interaction with trypanosomes. (A) Human BMEC pretreated with 20 μM DP-b99 impeded parasite transmigration across this barrier (t-5 hours, n=3). […] The data are represented as average TEER or migration±S.E. (n=4; p<0.05). (B) BSF trypanosomes were incubated with DP-b99 or DP460. The average percent (n=4) of parasites killed after 24 hours is plotted against drug concentration.
(§2) African Trypanosomes: The MAC compound of the present invention, DP-b99, as a chelator of Ca^2+ and Zn^2+ was tested to determine whether it would tighten the BBB to trypanosome traversal based on the concepts described above. In pilot parasite/BBB transmigration experiments, bloodstream form Trypanosoma brucei rhodesiense (Tbr) IL1852 were incubated in Transwell inserts containing human brain microvascular endothelial cell (BMEC) monolayers pretreated for 60 minutes with DP-b99, then washed free of drug. In a parallel experiment, human BMEC grown on gold-coated electrode ECIS arrays, were similarly treated with the MAC compound. When compared to the untreated control group, T. b. rhodesiense transmigration across a human BMEC barrier was impeded 60% after 5 hours incubation (FIG. 1A). […]

In test [2] the test system is human brain microvascular endothelial cell (BMEC) monolayers. Description: ECIS transendothelial electrical resistance (TEER) of human BMEC during infection. The following applies: BMEC pretreated with 20 μM DP-b99. The procedure: as §1, §2
The subject of test [3] is bloodstream form Trypanosoma brucei rhodesiense (Tbr) IL1852 transmigration across human BMEC barrier. Description: parasite/BBB transmigration across human BMEC monolayers in Transwell inserts. The conditions noted are these: BMEC pretreated 60 minutes with 20 μM DP-b99, washed free of drug; after 5 hours incubation. The procedure:
as §1, §2

Where [4] appears, read: pilot experiments, read-out: concentration range found to kill P. falciparum.

Structures are written as SMILES. Where two headings read alike, the source gives them in different places.

For `CCCCCCCCCCCCOCCOC(=O)CN(CC(=O)O)c1ccccc1OCCOc1ccccc1N(CC(=O)O)CC(=O)OCCOCCCCCCCCCCCC` [DP-460], the EC50 in the test with P. falciparum (R^2=0.995 (FIG. 3), read-out: EC50, P. falciparum killed) was 28 µM; with P. falciparum (setting [4]), 21 to 28 µM; in test [1], roughly 39 µM.

With `CCCCCCCCOCCOC(=O)CN(CC(=O)O)c1ccccc1OCCOc1ccccc1N(CC(=O)O)CC(=O)OCCOCCCCCCCC` [DP-b99], the “barrier tightness of human BMEC during the infection (ECIS TEER)” value in test [2] is recorded as “maintained a tighter barrier”. Moreover, the values for the EC50 (in the test with P. falciparum (setting [4]); in test [1]) were 21 to 28 µM and roughly 87 µM, respectively. The “T. b. rhodesiense transmigration across a human BMEC barrier impeded, compared to untreated control” value in test [3] is recorded as 60%.
